# Results reported in US5013841A, “Oxo quinoline derivatives” (Dainippon Pharmaceutical Co., Ltd., priority 1987, dated 1991).
# Where two headings read alike, the source gives them in different places.
# Tests used:
# Assay type in all cases: cell-based
# E. coli NIHJ JC-2 = test: In vitro antibacterial activity (twofold agar-dilution method); conditions: Escherichia coli, NIHJJC2; E. coli NIHJ JC-2; agar dilution, 20 h, 37° C., calculated for free base; read-out: minimum inhibitory concentration (MIC)
# Experimental: (§1) The figures in the table show minimum inhibitory concentrations (MIC) (μg/ml), calculated for free base. The minimum inhibitory concentration was determined by the twofold agar-dilution method, which was recommended by Japan Society of Chemotherapy (Chemotherapy, 29(1), 76(1981)), using Muller-Hinton agar. One loopful of an overnight culture of test organisms in Mueller-Hinton broth was inoculated onto 10-ml drug-containing agar layers in petri dishes. Bacterial inocula contained approximately 10^6 colonyl-formingunits. Bacterial growth was observed after 20-hour incubation at 37° C. The MIC was defined as the lowest drug concentration which prevented visible bacterial growth.
# E. coli P-5101 = test: as above; conditions: Escherichia coli, P5101; E. coli P-5101; agar dilution, 20 h, 37° C., calculated for free base; read-out: minimum inhibitory concentration (MIC)
# Experimental: as §1
# Flavobacterium sp P-7201 = test: as above; conditions: read-out: minimum inhibitory concentration (MIC)
# Experimental: as §1
# S. aureus 209 JC-1 = test: as above; conditions: Staphylococcus aureus, read-out: minimum inhibitory concentration (MIC)
# Experimental: as §1
# S. aureus Terajima = test: as above; conditions: Staphylococcus aureus, 20 h, read-out: minimum inhibitory concentration (MIC)
# Experimental: as §1
# S. epidermidis No. 8 = test: as above; conditions: Staphylococcus epidermidis, read-out: minimum inhibitory concentration (MIC)
# Experimental: as §1
# A. laidlawii PG-8 = test: Antimycoplasma activity (twofold agar dilution method); conditions: Acholeplasma laidlawii, PG8, 48 h, read-out: minimum inhibitory concentration (MIC)
# Experimental: (§2) The figures in the table show minimum inhibitory concentrations (MIC), (μg/ml), calculated for free base.
# (§3) Minimum inhibitory concentrations (MIC) were determined by the twofold agar dilution method. The media used were Chanock broth and agar PPLD broth and agar (Difco) supplemented with 20% horse serum and 10% fresh yeast extract). A 2-3 day broth culture of organisms was diluted with Chanock broth to a cell density of about 10^6 cells/ml. One loopful (about […]) of the organism dilution was spotted onto 10-ml drug containing Chanock agar in petri dishes using a multiple inoculator (Cathra International). The petri dishes were incubated at 37° C. for 7 and 2 days for Mycoplasma pneumoniae and other Mycoplasma spp. respectively. Incubation was performed anaerobically using the Gaspak anaerobic system (BBL) for M. buccale, M. fermentans, M. hominis, M. orale and M. salivarium, and aerobically for other Mycoplasma spp. The MIC was defined as the lowest compound concentration at which no growth of organism was detected.
# M. arginini G-230 = test: as above; conditions: 48 h, read-out: minimum inhibitory concentration (MIC)
# Experimental: as §2, §3
# M. buccale CH-20249 = test: as above; conditions: 48 h, read-out: minimum inhibitory concentration (MIC)
# Experimental: as §2, §3
# M. fermentans PG-18 = test: as above; conditions: Mycoplasmopsis fermentans, PG18, 48 h; M. fermentans PG-18; Chanock agar, 37° C., 2 days, anaerobic, calculated for free base; read-out: minimum inhibitory concentration (MIC)
# Experimental: as §2, §3
# M. hominis PG-21 = test: as above; conditions: Metamycoplasma hominis, PG21, 48 h; M. hominis PG-21; Chanock agar, 37° C., 2 days, anaerobic, calculated for free base; read-out: minimum inhibitory concentration (MIC)
# Experimental: as §2, §3
# M. hyorhinis BST-7 = test: as above; conditions: Mesomycoplasma hyorhinis, BST7, 48 h, read-out: minimum inhibitory concentration (MIC)
# Experimental: as §2, §3
# M. orale CH-19299 = test: as above; conditions: 48 h, read-out: minimum inhibitory concentration (MIC)
# Experimental: as §2, §3
# M. salivarium PG-20 = test: as above; conditions: 48 h, read-out: minimum inhibitory concentration (MIC)
# Experimental: as §2, §3
# [1] = test system: C. Trachomatics G/ur 1317; test: Antichlamydia activity (inclusion bodies in McCoy cells); conditions: 36° C., 40-48 h, calculated for free base, read-out: minimum inhibitory concentration (MIC)
# Experimental: (§4) Minimum inhibitory concentrations (MIC) were determined as follows. McCoy cells were freshly cultured in Eagle's minimum essential medium (EMEM) (Flow) supplemented with 4% fetal bovine serum and 0.03% L-glutamine. The cells were trypsinized and suspended in the same culture medium at a cell concentration of 1-2×10^5 cells/ml. One ml of the cell suspension was pipetted into flat-bottomed plastic tubes (14 mm in diameter) containing a cover slip (12 mm in diameter). The tubes were incubated in 5% CO2 -air at 36° C. for 20 hours. One-half ml of a chlamydial suspension (ca. 1-4×10^3 inclusion body forming units) was added into each tube, which was then centrifuged at 1500×g for 60 minutes. The tubes were incubated for 1 hour at 36° C. The medium was changed with 1 ml of EMEM supplemented with 8% fetal bovine serum, 0.03% L-blutamine, 1μg/ml cycloheximide and 0.5% glucose, and containing drugs at various concentrations. After further incubation at 36° C. for 40-48 hours, the cells on the cover glasses were stained with the Giemsa's solution. […] The MIC was defined as the lowest drug concentration where there were no inclusion bodies in all the cells on the cover slip.
# [2] = test system: C. Trachomatics G/ur 1467; test: as above; conditions: 36° C., 40-48 h, calculated for free base, read-out: minimum inhibitory concentration (MIC)
# Experimental: as §4
# [3] = test system: C. Trachomatics G/ur 1483; test: as above; conditions: 36° C., 40-48 h, calculated for free base, read-out: minimum inhibitory concentration (MIC)
# Experimental: as §4
# C. Trachomatics G/ur 931 = test: as above; conditions: 36° C., 40-48 h, calculated for free base, read-out: minimum inhibitory concentration (MIC)
# Experimental: as §4
structure (smiles),measurement,setting,value
Nc1c(F)c(N2CCNCC2)cc2c1c(=O)c(C(=O)O)cn2C1CC1 [Compound 1],MIC,E. coli NIHJ JC-2,0.0063 µg/mL
same,MIC,E. coli P-5101,0.0063 µg/mL
same,MIC,"Flavobacterium sp P-7201; P7201, Flavobacterium sp P-7201, agar dilution, 20 h, 37° C., calculated for free base",0.1 µg/mL
same,MIC,"S. aureus 209 JC-1; 209JC1, S. aureus 209 JC-1, agar dilution, 20 h, 37° C., calculated for free base",0.025 µg/mL
same,MIC,"S. aureus Terajima; S. aureus Terajima, agar dilution, 37° C., calculated for free base",0.05 µg/mL
same,MIC,"S. epidermidis No. 8; S. epidermidis No. 8, agar dilution, 20 h, 37° C., calculated for free base",0.025 µg/mL
same,MIC,"A. laidlawii PG-8; A. laidlawii PG-8, Chanock agar, 37° C., 2 days, aerobic, calculated for free base",0.1 µg/mL
same,MIC,"M. arginini G-230; M. arginini G-230, Chanock agar, 37° C., 2 days, aerobic, calculated for free base",0.1 µg/mL
same,MIC,"M. buccale CH-20249; M. buccale CH-20249, Chanock agar, 37° C., 2 days, anaerobic, calculated for free base",0.1 µg/mL
same,MIC,M. fermentans PG-18,0.1 µg/mL
same,MIC,M. hominis PG-21,0.39 µg/mL
same,MIC,"M. hyorhinis BST-7; M. hyorhinis BST-7, Chanock agar, 37° C., 2 days, aerobic, calculated for free base",0.1 µg/mL
same,MIC,"M. orale CH-19299; M. orale CH-19299, Chanock agar, 37° C., 2 days, anaerobic, calculated for free base",0.39 µg/mL
same,MIC,"M. salivarium PG-20; M. salivarium PG-20, Chanock agar, 37° C., 2 days, anaerobic, calculated for free base",1.56 µg/mL
same,MIC,[1],0.25 µg/mL
same,MIC,[2],0.25 µg/mL
same,MIC,[3],0.25 µg/mL
same,MIC,C. Trachomatics G/ur 931,0.25 µg/mL
"C[C@@H]1CN(c2cc3c(c(N)c2F)c(=O)c(C(=O)O)cn3C2CC2)C[C@H](C)N1 [Compound 2, 5-amino-1-cyclopropyl-6-fluoro-7-(cis-3,5-dimethyl-1-piperazinyl)-1,4-dihydro-4-oxoquinoline-3-carboxylic acid]",MIC,E. coli NIHJ JC-2,0.025 µg/mL
same,MIC,E. coli P-5101,0.025 µg/mL
same,MIC,"Flavobacterium sp P-7201; Flavobacterium, P7201, 20 h",0.1 µg/mL
same,MIC,"S. aureus 209 JC-1; 209JC1, 20 h",0.1 µg/mL
same,MIC,S. aureus Terajima,0.05 µg/mL
same,MIC,"S. epidermidis No. 8; NO.8, 20 h",0.1 µg/mL
same,MIC,A. laidlawii PG-8,0.05 µg/mL
same,MIC,M. arginini G-230,0.05 µg/mL
same,MIC,M. buccale CH-20249,0.05 µg/mL
same,MIC,M. fermentans PG-18,0.025 µg/mL
same,MIC,M. hominis PG-21,0.1 µg/mL
same,MIC,M. hyorhinis BST-7,0.05 µg/mL
same,MIC,M. orale CH-19299,0.39 µg/mL
same,MIC,M. salivarium PG-20,0.39 µg/mL
same,MIC,[1],0.063 µg/mL
same,MIC,[2],0.063 µg/mL
same,MIC,[3],0.063 µg/mL
same,MIC,C. Trachomatics G/ur 931,0.063 µg/mL
